From ChEMBL document CHEMBL4145615, “Indolyl Azaspiroketal Mannich Bases Are Potent Antimycobacterial Agents with Selective Membrane Permeabilizing Effects and in Vivo Activity” (J Med Chem, 2018)
Converted amounts (≈) assume the structure as drawn.

Test system: Mycobacterium tuberculosis variant bovis BCG
Test: Antimycobacterial activity against Mycobacterium bovis BCG ATCC 35734 after 5 days by broth dilution method
Assay type: functional
Settings: ATCC 35734, 120 h

SMILES | MIC50 | MIC90
CCCCCCCCn1ccc2ccc(OCCCN3CCCC3)cc21 | 20 µM (≈ 7.13 µg/mL) | 42 µM (≈ 15 µg/mL)
COc1ccc2c(CN3CCC4(CC3)OCCO4)cn(CCCCc3ccccc3)c2c1 | 4.9 µM (≈ 2.13 µg/mL) | 11.5 µM (≈ 5 µg/mL)
CCCCCCCCn1cc(CN2CCC3(CC2)OCCCO3)c2ccc(OC(C)C)cc21 | 0.6 µM (≈ 0.274 µg/mL) | 1.6 µM (≈ 0.731 µg/mL)
CCCCCCCCn1cc(CN2CCC3(CC2)OCCO3)c2ccc(OC(C)C)cc21 | 3 µM (≈ 1.33 µg/mL) | 6 µM (≈ 2.66 µg/mL)
CCCCCCCCn1cc(CN2CCC3(CC2)OCCCO3)c2c([N+](=O)[O-])cccc21 | 10 µM (≈ 4.44 µg/mL) | 25 µM (≈ 11.1 µg/mL)
CCCCCCCCn1ccc2ccc(OCCCN3CCC4(CC3)OC[C@H](C)O4)cc21 | 11 µM (≈ 4.87 µg/mL) | 25 µM (≈ 11.1 µg/mL)
CCCCCCCCn1cc(CN2CCC3(CC2)OCCCO3)c2ccc(OCc3ccccc3)cc21 | 2.2 µM (≈ 1.11 µg/mL) | 3.1 µM (≈ 1.56 µg/mL)
COc1ccc2c(CN3CCC4(CC3)OCCCO4)cn(CCCOc3ccc(F)cc3)c2c1 | 1.5 µM (≈ 0.703 µg/mL) | 2.6 µM (≈ 1.22 µg/mL)
COc1ccc2c(CN3CCC4(CC3)OCCO4)cn(CCCOc3ccc(C)c(C)c3)c2c1 | 4.6 µM (≈ 2.14 µg/mL) | 11 µM (≈ 5.11 µg/mL)
CCCCCCCCn1cc(CN2CC(n3cccn3)C2)c2ccc(OC)cc21 | 6 µM (≈ 2.37 µg/mL) | 15 µM (≈ 5.92 µg/mL)
CCCCCCCCn1cc(CNCC2CC3CC3C2)c2ccc(OC)cc21 (stereo not given) | 2 µM (≈ 0.765 µg/mL) | 4 µM (≈ 1.53 µg/mL)
CCCCCCCCn1cc(CN2CCC3(CC2)OCCCO3)c2ccc(OCCC)cc21 | 0.7 µM (≈ 0.32 µg/mL) | 1.2 µM (≈ 0.548 µg/mL)
COc1ccc2c(CN3CCC4(CC3)OCCCO4)cn(CCCOCc3ccccc3)c2c1 | 2 µM (≈ 0.929 µg/mL) | 6 µM (≈ 2.79 µg/mL)
CCCCCCCCn1cc(CN2CCC3(CC2)OCCCO3)c2cccc([N+](=O)[O-])c21 | 1.3 µM (≈ 0.577 µg/mL) | 3.1 µM (≈ 1.38 µg/mL)
CCCCCCCCn1cc(CN2CCCCC2)c2ccc([N+](=O)[O-])cc21 | 4 µM (≈ 1.49 µg/mL) | 5 µM (≈ 1.86 µg/mL)
CCCCCCCCn1cc(CNC2Cc3ccccc3C2)c2ccc(OC)cc21 | 4 µM (≈ 1.62 µg/mL) | –
COc1ccc(OCCCn2cc(CN3CCCCC3)c3ccc(OC)cc32)cc1 | 34 µM (≈ 13.9 µg/mL) | > 50 µM
CCCCCCCCn1cc(CN2CCC3(CC2)OCCCO3)c2ccc([N+](=O)[O-])cc21 | 0.3 µM (≈ 0.133 µg/mL) | 0.8 µM (≈ 0.355 µg/mL)
CCCCCCCCn1cc(CN2CCC3(CC2)OC[C@H](C)O3)c2ccc(OC)cc21 | 0.5 µM (≈ 0.214 µg/mL) | 0.9 µM (≈ 0.386 µg/mL)
CCCCCCCCn1ccc2cccc(OCCCN3CCCC3)c21 | 10 µM (≈ 3.57 µg/mL) | 22 µM (≈ 7.84 µg/mL)
CCCCCCCCn1cc(CN2CCC3(CCc4ccccc43)CC2)c2ccc(OC)cc21 | 1 µM (≈ 0.459 µg/mL) | 2 µM (≈ 0.917 µg/mL)
CCCCCCCCn1cc(CNCC2CC3CCC2C3)c2ccc(OC)cc21 (stereo not given) | 1.1 µM (≈ 0.436 µg/mL) | 1.9 µM (≈ 0.754 µg/mL)

SMILES | MIC50 | MIC90
CCCCCCCCn1cc(CN2CCC3(C=Cc4ccccc43)CC2)c2ccc(OC)cc21 | 1 µM (≈ 0.457 µg/mL) | 2 µM (≈ 0.913 µg/mL)
CCCCCCCCn1cc(CN2CCC(=O)CC2)c2ccc(OC)cc21 | 17 µM (≈ 6.3 µg/mL) | 24 µM (≈ 8.89 µg/mL)
CCCCCCCCn1cc(CN2CCC3(CC2)OCCCO3)c2ccc(C#N)cc21 | 0.5 µM (≈ 0.212 µg/mL) | 1.2 µM (≈ 0.508 µg/mL)
COc1ccc2c(CN3CCC4(CC3)OCCO4)cn(CCCOc3ccc(F)cc3)c2c1 | 5 µM (≈ 2.27 µg/mL) | 11 µM (≈ 5 µg/mL)
COc1ccc2c(CN3CCCCC3)cn(CCCOc3ccc(F)cc3)c2c1 | 20 µM (≈ 7.93 µg/mL) | 43 µM (≈ 17 µg/mL)
CCCCCCCCn1cc(CN2CCOC3(CCCOC3)C2)c2ccc(OC)cc21 (stereo not given) | 1.8 µM (≈ 0.772 µg/mL) | 6.3 µM (≈ 2.7 µg/mL)
CCCCCCCCn1cc(CN2CCC3(CC2)OCCCO3)c2cc([N+](=O)[O-])ccc21 | 7 µM (≈ 3.11 µg/mL) | 18 µM (≈ 7.98 µg/mL)
CCCCCCCCn1cc(CN2CCC3(CC2)OCCO3)c2ccc(C#N)cc21 | 2.5 µM (≈ 1.02 µg/mL) | 5 µM (≈ 2.05 µg/mL)
CCCCCCCCn1ccc2cccc(OCCCN3CCCCC3)c21 | 5 µM (≈ 1.85 µg/mL) | 13 µM (≈ 4.82 µg/mL)
COc1ccc2c(CN3CCC4(CC3)OCCCO4)cn(CCCOc3ccc(C)cc3)c2c1 | 1.3 µM (≈ 0.604 µg/mL) | 2.6 µM (≈ 1.21 µg/mL)
CCCCCCCCn1cc(CNCC2CCC3(CCCC3)O2)c2ccc(OC)cc21 (stereo not given) | 1.8 µM (≈ 0.768 µg/mL) | 4.6 µM (≈ 1.96 µg/mL)
CCCCCCCCn1cc(CN2CC3C(C2)C3(F)F)c2ccc(OC)cc21 (stereo not given) | 21 µM (≈ 8.2 µg/mL) | 50 µM (≈ 19.5 µg/mL)
CCCCCCCCn1cc(CN2CCCC3(CC2)OCCCS3)c2ccc(OC)cc21 (stereo not given) | 0.5 µM (≈ 0.229 µg/mL) | 1 µM (≈ 0.459 µg/mL)
CCCCCCCCn1ccc2c(OCCCN3CCCC3)cccc21 | 18 µM (≈ 6.42 µg/mL) | 36 µM (≈ 12.8 µg/mL)
CCCCCCCCn1cc(CN2CC(c3ccccc3)C2)c2ccc(OC)cc21 | 2 µM (≈ 0.809 µg/mL) | 4 µM (≈ 1.62 µg/mL)
COc1ccc(OCCCn2cc(CN3CCC4(CC3)OCCCO4)c3ccc(OC)cc32)cc1 | 1.5 µM (≈ 0.721 µg/mL) | 3.5 µM (≈ 1.68 µg/mL)
COc1ccc(CCCn2cc(CN3CCC4(CC3)OCCO4)c3ccc(OC)cc32)cc1 | 7.4 µM (≈ 3.33 µg/mL) | 17 µM (≈ 7.66 µg/mL)
CCCCCCCCn1cc(CNC2CCC(=O)CC2)c2ccc(OC)cc21 | 15 µM (≈ 5.77 µg/mL) | 24 µM (≈ 9.23 µg/mL)
CCCCCCCCn1cc(CN2CC3COCC(C2)O3)c2ccc(OC)cc21 | 17 µM (≈ 6.81 µg/mL) | 30 µM (≈ 12 µg/mL)
CCCCCCCCn1cc(CN2CCCC(=O)CC2)c2ccc(OC)cc21 | 17 µM (≈ 6.54 µg/mL) | 42 µM (≈ 16.2 µg/mL)
CCCCCCCCn1cc(CN2CCCC3(C2)CC3(F)F)c2ccc(OC)cc21 (stereo not given) | 13 µM (≈ 5.44 µg/mL) | 25 µM (≈ 10.5 µg/mL)
